Data on five compounds can be found in PubChem BioAssay AID1259407 (Chemical Carcinogenesis Research Information System (CCRIS), 2018).

Each structure is given as a SMILES string. Active and inactive are the calls of the source. No rule for the calls is given here.

The test system of the series is CCRIS mutagenicity, Ames/micronucleus/aberration tests. Kind of series: CCRIS mutagenicity studies.
Where [1] appears, read: Test System: AMES SALMONELLA TYPHIMURIUM, Strain/Indicator: TA97, Metabolic Activation: NONE, Method: PREINCUBATION
The mark [2] stands for this setting: Test System: AMES SALMONELLA TYPHIMURIUM, Strain/Indicator: TA98, Metabolic Activation: NONE, Method: STANDARD PLATE.
The mark [3] stands for this setting: Test System: AMES SALMONELLA TYPHIMURIUM, Strain/Indicator: TA98, Metabolic Activation: RAT, LIVER, S-9, AROCLOR 1254, Method: STANDARD PLATE.
Where [4] appears, read: Test System: AMES SALMONELLA TYPHIMURIUM, Strain/Indicator: TA100, Metabolic Activation: NONE, Method: STANDARD PLATE.
Where [5] appears, read: Test System: AMES SALMONELLA TYPHIMURIUM, Strain/Indicator: TA100, Metabolic Activation: RAT, LIVER, S-9, AROCLOR 1254, Method: STANDARD PLATE.
[6] abbreviates: Test System: AMES SALMONELLA TYPHIMURIUM, Strain/Indicator: TA1535, Metabolic Activation: NONE, Method: STANDARD PLATE.
Setting [7] is: Test System: AMES SALMONELLA TYPHIMURIUM, Strain/Indicator: TA1535, Metabolic Activation: RAT, LIVER, S-9, AROCLOR 1254, Method: STANDARD PLATE.
[8] abbreviates: Test System: AMES SALMONELLA TYPHIMURIUM, Strain/Indicator: TA1537, Metabolic Activation: NONE, Method: STANDARD PLATE.
Where [9] appears, read: Test System: AMES SALMONELLA TYPHIMURIUM, Strain/Indicator: TA1537, Metabolic Activation: RAT, LIVER, S-9, AROCLOR 1254, Method: STANDARD PLATE.
[10] abbreviates: Test System: AMES SALMONELLA TYPHIMURIUM, Strain/Indicator: TA1538, Metabolic Activation: NONE, Method: STANDARD PLATE.
Setting [11] is: Test System: AMES SALMONELLA TYPHIMURIUM, Strain/Indicator: TA1538, Metabolic Activation: RAT, LIVER, S-9, AROCLOR 1254, Method: STANDARD PLATE.

With `COc1cc([N+](=O)[O-])ccc1N=NC(C(C)=O)C(=O)Nc1ccccc1OC` (stereo unspecified), the mutagenic call is, setting by setting: (Test System: AMES SALMONELLA TYPHIMURIUM, Strain/Indicator: TA97, Metabolic Activation: HAMSTER, LIVER, S-9, AROCLOR 1254 (10%), Method: PREINCUBATION) “inactive; negative”; (Test System: AMES SALMONELLA TYPHIMURIUM, Strain/Indicator: TA97, Metabolic Activation: HAMSTER, LIVER, S-9, AROCLOR 1254 (30%), Method: PREINCUBATION) “inactive; negative”; under setting [1], “inactive; negative”; (Test System: AMES SALMONELLA TYPHIMURIUM, Strain/Indicator: TA97, Metabolic Activation: RAT, LIVER, S-9, AROCLOR 1254 (10%), Method: PREINCUBATION) “inactive; negative”; (Test System: AMES SALMONELLA TYPHIMURIUM, Strain/Indicator: TA97, Metabolic Activation: RAT, LIVER, S-9, AROCLOR 1254 (30%), Method: PREINCUBATION) “inactive; negative”; (Test System: AMES SALMONELLA TYPHIMURIUM, Strain/Indicator: TA98, Metabolic Activation: HAMSTER, LIVER, S-9, AROCLOR 1254 (10%), Method: PREINCUBATION) “inactive; negative”. The mutagenic call was “inactive; negative” (Test System: AMES SALMONELLA TYPHIMURIUM, Strain/Indicator: TA98, Metabolic Activation: HAMSTER, LIVER, S-9, AROCLOR 1254 (30%), Method: PREINCUBATION); “inactive; negative” (Test System: AMES SALMONELLA TYPHIMURIUM, Strain/Indicator: TA98, Metabolic Activation: HAMSTER, LIVER, S-9, AROCLOR 1254, Method: STANDARD PLATE); “inactive; negative” (Test System: AMES SALMONELLA TYPHIMURIUM, Strain/Indicator: TA98, Metabolic Activation: NONE, Method: PREINCUBATION); “inactive; negative” under setting [2]; “inactive; negative” (Test System: AMES SALMONELLA TYPHIMURIUM, Strain/Indicator: TA98, Metabolic Activation: RAT, LIVER, S-9, AROCLOR 1254 (10%), Method: PREINCUBATION); “inactive; negative” (Test System: AMES SALMONELLA TYPHIMURIUM, Strain/Indicator: TA98, Metabolic Activation: RAT, LIVER, S-9, AROCLOR 1254 (30%), Method: PREINCUBATION). For the same compound, the mutagenic call is “inactive; negative” under setting [3]; “inactive; negative” (Test System: AMES SALMONELLA TYPHIMURIUM, Strain/Indicator: TA100, Metabolic Activation: HAMSTER, LIVER, S-9, AROCLOR 1254 (10%), Method: PREINCUBATION); “inactive; negative” (Test System: AMES SALMONELLA TYPHIMURIUM, Strain/Indicator: TA100, Metabolic Activation: HAMSTER, LIVER, S-9, AROCLOR 1254 (30%), Method: PREINCUBATION); “inactive; negative” (Test System: AMES SALMONELLA TYPHIMURIUM, Strain/Indicator: TA100, Metabolic Activation: HAMSTER, LIVER, S-9, AROCLOR 1254, Method: STANDARD PLATE); “inactive; negative” (Test System: AMES SALMONELLA TYPHIMURIUM, Strain/Indicator: TA100, Metabolic Activation: NONE, Method: PREINCUBATION); “inactive; negative” under setting [4]. Further, the mutagenic call runs as follows: (Test System: AMES SALMONELLA TYPHIMURIUM, Strain/Indicator: TA100, Metabolic Activation: RAT, LIVER, S-9, AROCLOR 1254 (10%), Method: PREINCUBATION) “inactive; negative”; (Test System: AMES SALMONELLA TYPHIMURIUM, Strain/Indicator: TA100, Metabolic Activation: RAT, LIVER, S-9, AROCLOR 1254 (30%), Method: PREINCUBATION) “inactive; negative”; under setting [5], “inactive; negative”; (Test System: AMES SALMONELLA TYPHIMURIUM, Strain/Indicator: TA1535, Metabolic Activation: HAMSTER, LIVER, S-9, AROCLOR 1254 (10%), Method: PREINCUBATION) “inactive; negative”; (Test System: AMES SALMONELLA TYPHIMURIUM, Strain/Indicator: TA1535, Metabolic Activation: HAMSTER, LIVER, S-9, AROCLOR 1254 (30%), Method: PREINCUBATION) “inactive; negative”; (Test System: AMES SALMONELLA TYPHIMURIUM, Strain/Indicator: TA1535, Metabolic Activation: HAMSTER, LIVER, S-9, AROCLOR 1254, Method: STANDARD PLATE) “inactive; negative”. Also, the mutagenic call was “inactive; negative” under setting [6]; “inactive; negative” (Test System: AMES SALMONELLA TYPHIMURIUM, Strain/Indicator: TA1535, Metabolic Activation: RAT, LIVER, S-9, AROCLOR 1254 (10%), Method: PREINCUBATION); “inactive; negative” (Test System: AMES SALMONELLA TYPHIMURIUM, Strain/Indicator: TA1535, Metabolic Activation: RAT, LIVER, S-9, AROCLOR 1254 (30%), Method: PREINCUBATION); “inactive; negative” under setting [7]; “inactive; negative” (Test System: AMES SALMONELLA TYPHIMURIUM, Strain/Indicator: TA1537, Metabolic Activation: HAMSTER, LIVER, S-9, AROCLOR 1254, Method: STANDARD PLATE); “inactive; negative” under setting [8]. For the same compound, the mutagenic call by setting is: under setting [9], “inactive; negative”; (Test System: AMES SALMONELLA TYPHIMURIUM, Strain/Indicator: TA1538, Metabolic Activation: HAMSTER, LIVER, S-9, AROCLOR 1254, Method: STANDARD PLATE) “inactive; negative”; under setting [10], “inactive; negative”; under setting [11], “inactive; negative”; (Test System: MOUSE LYMPHOMA, Strain/Indicator: L5178Y (TK+/TK-), Metabolic Activation: NONE, Method: SUSPENSION/PLATE) “inactive; negative. reevaluation of results: negative”; (Test System: MOUSE LYMPHOMA, Strain/Indicator: L5178Y (TK+/TK-), Metabolic Activation: RAT, LIVER, S-9, AROCLOR 1254, Method: SUSPENSION/PLATE) “inactive; negative. reevaluation of results: negative”.

In the case of `O=C1OCC(CCl)=C1Cl`, under setting [4], the mutagenic call was “active; positive”.

In the case of `O=C(CCCN1CCN(c2ccccn2)CC1)c1ccc(F)cc1`, the mutagenic call was “inactive; negative” (Test System: AMES SALMONELLA TYPHIMURIUM, Strain/Indicator: TA98, Metabolic Activation: MOUSE, LIVER, S-9, PHENOBARBITAL, Method: STANDARD PLATE); “inactive; negative” under setting [2]; “inactive; negative” (Test System: AMES SALMONELLA TYPHIMURIUM, Strain/Indicator: TA98, Metabolic Activation: RAT, LIVER, S-9, AROCLOR 1254, Method: PREINCUBATION); “inactive; negative” under setting [3]; “inactive; negative” under setting [4]; “inactive; negative” under setting [5]. In addition, the mutagenic call runs as follows: (Test System: AMES SALMONELLA TYPHIMURIUM, Strain/Indicator: TA1530, Metabolic Activation: NONE, Method: STANDARD PLATE) “inactive; negative”; (Test System: AMES SALMONELLA TYPHIMURIUM, Strain/Indicator: TA1530, Metabolic Activation: RAT, LIVER, S-9, AROCLOR 1254, Method: STANDARD PLATE) “inactive; negative”; under setting [6], “inactive; negative”; under setting [7], “inactive; negative”; under setting [8], “inactive; negative”; under setting [9], “inactive; negative”. The mutagenic call by setting is: under setting [10], “inactive; negative”; under setting [11], “inactive; negative”.

Regarding `CC(C)Nc1nc(Cl)nc(NCC(=O)O)n1`, the mutagenic call (End Point: In vivo micronucleus, Test System: Bone marrow erythrocytes, Species: Mouse, Strain/Sex: Crl:CD-1, Route: Gavage) is “inactive; negative; proportion of pces per 1000 erythrocytes depressed”.

Turning to `CCCC(=O)OCCC(C)C`, the mutagenic call under setting [1] was “inactive; negative”; the mutagenic call (Test System: AMES SALMONELLA TYPHIMURIUM, Strain/Indicator: TA97, Metabolic Activation: RAT, LIVER, S-9, AROCLOR 1254, Method: PREINCUBATION) was “inactive; negative”; the mutagenic call (Test System: AMES SALMONELLA TYPHIMURIUM, Strain/Indicator: TA102, Metabolic Activation: NONE, Method: PREINCUBATION) was “inactive; negative”; the mutagenic call (Test System: AMES SALMONELLA TYPHIMURIUM, Strain/Indicator: TA102, Metabolic Activation: RAT, LIVER, S-9, AROCLOR 1254, Method: PREINCUBATION) was “inactive; negative”.
